Target: NRAS (Homo sapiens, UniProt P01111, Q61R)
Assay: acyl-resin assisted capture
Format: cell-based

## C8 alkyl cysteine [compound 1]
  IC50: 7 µM
